Test results: PubChem BioAssay (NCI)
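A five-concentration, 48-hour dose response in 96-well plates underlies each endpoint, interpolated linearly between surrounding concentrations. Here, GI50 denotes the concentration required for 50% inhibition of growth. The concentration for full growth arrest is given as TGI.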

Experiments:
Experiment in all cases: growth of human tumour cells (NCI), 48 h
DU-145 prostate = test system: DU-145 prostate
SK-MEL-5 melanoma = test system: SK-MEL-5 melanoma
MDA-MB-231 breast = test system: MDA-MB-231 breast
UACC-257 melanoma = test system: UACC-257 melanoma
RPMI-8226 leukemia = test system: RPMI-8226 leukemia
SK-MEL-28 melanoma = test system: SK-MEL-28 melanoma
CAKI-1 renal = test system: CAKI-1 renal
A498 renal = test system: A498 renal
OVCAR-5 ovarian = test system: OVCAR-5 ovarian
SF-295 CNS = test system: SF-295 CNS
HL-60(TB) leukemia = test system: HL-60(TB) leukemia
HOP-92 NSCLC = test system: HOP-92 NSCLC
786-0 renal = test system: 786-0 renal
IGROV1 ovarian = test system: IGROV1 ovarian
UACC-62 melanoma = test system: UACC-62 melanoma
SF-268 CNS = test system: SF-268 CNS
HCC-2998 colon = test system: HCC-2998 colon
SW-620 colon = test system: SW-620 colon
HT29 colon = test system: HT29 colon
SN12C renal = test system: SN12C renal
MCF7 breast = test system: MCF7 breast
SNB-75 CNS = test system: SNB-75 CNS
HS 578T breast = test system: HS 578T breast
RXF 393 renal = test system: RXF 393 renal
SNB-19 CNS = test system: SNB-19 CNS
SR leukemia = test system: SR leukemia
ACHN renal = test system: ACHN renal
SF-539 CNS = test system: SF-539 CNS
K-562 leukemia = test system: K-562 leukemia
OVCAR-3 ovarian = test system: OVCAR-3 ovarian
NCI-H23 lung = test system: NCI-H23 lung
MOLT-4 leukemia = test system: MOLT-4 leukemia
TK-10 renal = test system: TK-10 renal
U251 CNS = test system: U251 CNS
OVCAR-8 ovarian = test system: OVCAR-8 ovarian
BT-549 breast = test system: BT-549 breast
T-47D breast = test system: T-47D breast
EKVX NSCLC = test system: EKVX NSCLC
HCT-116 colon = test system: HCT-116 colon
NCI/ADR-RES ovarian = test system: NCI/ADR-RES ovarian
UO-31 renal = test system: UO-31 renal
NCI-H460 lung = test system: NCI-H460 lung
PC-3 prostate = test system: PC-3 prostate
NCI-H522 lung = test system: NCI-H522 lung
M14 melanoma = test system: M14 melanoma
HOP-62 NSCLC = test system: HOP-62 NSCLC
KM12 colon = test system: KM12 colon
SK-MEL-2 melanoma = test system: SK-MEL-2 melanoma
OVCAR-4 ovarian = test system: OVCAR-4 ovarian
MALME-3M melanoma = test system: MALME-3M melanoma
COLO 205 colon = test system: COLO 205 colon
NCI-H226 lung = test system: NCI-H226 lung
MDA-MB-435 = test system: MDA-MB-435
CCRF-CEM leukemia = test system: CCRF-CEM leukemia
LOX IMVI melanoma = test system: LOX IMVI melanoma
SK-OV-3 ovarian = test system: SK-OV-3 ovarian
A549 NSCLC = test system: A549 NSCLC

COc1cccc(-c2nc(-c3ccc(NC(=O)C(C)C)cc3)[nH]c2-c2ccnc(Br)c2)c1
GI50 (DU-145 prostate): 3.86 µM
TGI (DU-145 prostate): > 100 µM
GI50 (SK-MEL-5 melanoma): 1800 nM
TGI (SK-MEL-5 melanoma): 3.32 µM
GI50 (MDA-MB-231 breast): 4.09 µM
TGI (MDA-MB-231 breast): > 100 µM
GI50 (UACC-257 melanoma): 4.02 µM
TGI (UACC-257 melanoma): > 100 µM
GI50 (RPMI-8226 leukemia): 511 nM
TGI (RPMI-8226 leukemia): 2850 nM
GI50 (SK-MEL-28 melanoma): 2780 nM
TGI (SK-MEL-28 melanoma): > 100 µM
GI50 (CAKI-1 renal): 2730 nM
TGI (CAKI-1 renal): > 100 µM
GI50 (A498 renal): 1840 nM
TGI (A498 renal): 6.62 µM
GI50 (OVCAR-5 ovarian): 4.69 µM
TGI (OVCAR-5 ovarian): > 100 µM
GI50 (SF-295 CNS): 273 nM
TGI (SF-295 CNS): 759 nM
GI50 (HL-60(TB) leukemia): 1560 nM
TGI (HL-60(TB) leukemia): 5.24 µM
GI50 (HOP-92 NSCLC): 3.58 µM
TGI (HOP-92 NSCLC): 48.4 µM
GI50 (786-0 renal): 1300 nM
TGI (786-0 renal): > 100 µM
GI50 (IGROV1 ovarian): 3.55 µM
TGI (IGROV1 ovarian): > 100 µM
GI50 (UACC-62 melanoma): 2570 nM
TGI (UACC-62 melanoma): 7.99 µM
GI50 (SF-268 CNS): 4.07 µM
TGI (SF-268 CNS): > 100 µM
GI50 (HCC-2998 colon): 2030 nM
TGI (HCC-2998 colon): 6.01 µM
GI50 (SW-620 colon): 3.52 µM
TGI (SW-620 colon): > 100 µM
GI50 (HT29 colon): 3.07 µM
TGI (HT29 colon): > 100 µM
GI50 (SN12C renal): 3.31 µM
TGI (SN12C renal): > 100 µM
GI50 (MCF7 breast): 1670 nM
TGI (MCF7 breast): 5.2 µM
GI50 (SNB-75 CNS): 488 nM
TGI (SNB-75 CNS): > 100 µM
GI50 (HS 578T breast): 548 nM
TGI (HS 578T breast): 3.93 µM
GI50 (RXF 393 renal): 354 nM
TGI (RXF 393 renal): 1460 nM
GI50 (SNB-19 CNS): 3.76 µM
TGI (SNB-19 CNS): > 100 µM
GI50 (SR leukemia): 2410 nM
TGI (SR leukemia): > 100 µM
GI50 (ACHN renal): 2740 nM
TGI (ACHN renal): > 100 µM
GI50 (SF-539 CNS): 1780 nM
TGI (SF-539 CNS): 6.56 µM
GI50 (K-562 leukemia): 3.07 µM
TGI (K-562 leukemia): > 100 µM
GI50 (OVCAR-3 ovarian): 3.38 µM
TGI (OVCAR-3 ovarian): > 100 µM
GI50 (NCI-H23 lung): 2880 nM
GI50 (MOLT-4 leukemia): 2560 nM
TGI (MOLT-4 leukemia): > 100 µM
GI50 (TK-10 renal): 4.35 µM
TGI (TK-10 renal): > 100 µM
GI50 (U251 CNS): 2080 nM
TGI (U251 CNS): > 100 µM
GI50 (OVCAR-8 ovarian): 3.61 µM
TGI (OVCAR-8 ovarian): > 100 µM
GI50 (BT-549 breast): 2040 nM
TGI (BT-549 breast): 80.1 µM
GI50 (T-47D breast): 2560 nM
TGI (T-47D breast): 11.5 µM
GI50 (EKVX NSCLC): 2430 nM
TGI (EKVX NSCLC): 8.01 µM
GI50 (HCT-116 colon): 2490 nM
TGI (HCT-116 colon): 7.8 µM
GI50 (NCI/ADR-RES ovarian): 3.03 µM
TGI (NCI/ADR-RES ovarian): > 100 µM
GI50 (UO-31 renal): 3.2 µM
TGI (UO-31 renal): > 100 µM
GI50 (NCI-H460 lung): 3.2 µM
TGI (NCI-H460 lung): 21.3 µM
GI50 (PC-3 prostate): 3.02 µM
TGI (PC-3 prostate): > 100 µM
GI50 (NCI-H522 lung): 2800 nM
TGI (NCI-H522 lung): > 100 µM
GI50 (M14 melanoma): 3.3 µM
TGI (M14 melanoma): > 100 µM
GI50 (HOP-62 NSCLC): 3.44 µM
TGI (HOP-62 NSCLC): > 100 µM
GI50 (KM12 colon): 2960 nM
TGI (KM12 colon): > 100 µM
GI50 (SK-MEL-2 melanoma): 2300 nM
TGI (SK-MEL-2 melanoma): 6.34 µM
GI50 (OVCAR-4 ovarian): 3.54 µM
TGI (OVCAR-4 ovarian): > 100 µM
GI50 (MALME-3M melanoma): 2650 nM
TGI (MALME-3M melanoma): 9.26 µM
GI50 (COLO 205 colon): 2810 nM
TGI (COLO 205 colon): 7.59 µM
GI50 (NCI-H226 lung): 2530 nM
TGI (NCI-H226 lung): 21.4 µM
GI50 (MDA-MB-435): 3.12 µM
TGI (MDA-MB-435): > 100 µM
GI50 (CCRF-CEM leukemia): 2990 nM
TGI (CCRF-CEM leukemia): > 100 µM
GI50 (LOX IMVI melanoma): 1610 nM
TGI (LOX IMVI melanoma): 3.38 µM
GI50 (SK-OV-3 ovarian): 3.66 µM
TGI (SK-OV-3 ovarian): > 100 µM
GI50 (A549 NSCLC): 3.45 µM
TGI (A549 NSCLC): > 100 µM
